Data from ChEMBL document CHEMBL1268942, “Novel selective anti-androgens with a diphenylpentane skeleton” (Bioorg Med Chem Lett, 2010).

Tested on: not listed separately
Assay: Toxicity in androgen-dependent mouse SC3 cells at 30 uM
Format: cell-based
Settings: sc-3, 30 µM

| SMILES | Activity |
| --- | --- |
| CCC(CC)(c1ccc(OCC(=O)C(C)(C)Cc2ccccc2)c(C)c1)c1ccc(OC[C@@H](O)CO)c(C)c1 | Toxic |
| CCC(CC)(c1ccc(OCC(O)C(C)(C)CCCCc2ccccc2)c(C)c1)c1ccc(OC[C@@H](O)CO)c(C)c1 (stereo partly drawn) | Toxic |
| CCC(CC)(c1ccc(OCC(O)C23CC4CC(CC(C4)C2)C3)c(C)c1)c1ccc(OC[C@@H](O)CO)c(C)c1 (stereo partly drawn) | Toxic |
| CCC(CC)(c1ccc(OC[C@@H](O)CO)c(C)c1)c1ccc(O[C@@H]2CN(Cc3ccccc3)C[C@@H]2O)c(C)c1 | Toxic |
| CCC(CC)(c1ccc(OCC(O)C(C)(C)Cc2ccc3ccccc3c2)c(C)c1)c1ccc(OC[C@@H](O)CO)c(C)c1 (stereo partly drawn) | Toxic |

Biological target: T1, Androgen receptor (Homo sapiens, UniProt P10275)
T1 sequence (P10275 whole entry): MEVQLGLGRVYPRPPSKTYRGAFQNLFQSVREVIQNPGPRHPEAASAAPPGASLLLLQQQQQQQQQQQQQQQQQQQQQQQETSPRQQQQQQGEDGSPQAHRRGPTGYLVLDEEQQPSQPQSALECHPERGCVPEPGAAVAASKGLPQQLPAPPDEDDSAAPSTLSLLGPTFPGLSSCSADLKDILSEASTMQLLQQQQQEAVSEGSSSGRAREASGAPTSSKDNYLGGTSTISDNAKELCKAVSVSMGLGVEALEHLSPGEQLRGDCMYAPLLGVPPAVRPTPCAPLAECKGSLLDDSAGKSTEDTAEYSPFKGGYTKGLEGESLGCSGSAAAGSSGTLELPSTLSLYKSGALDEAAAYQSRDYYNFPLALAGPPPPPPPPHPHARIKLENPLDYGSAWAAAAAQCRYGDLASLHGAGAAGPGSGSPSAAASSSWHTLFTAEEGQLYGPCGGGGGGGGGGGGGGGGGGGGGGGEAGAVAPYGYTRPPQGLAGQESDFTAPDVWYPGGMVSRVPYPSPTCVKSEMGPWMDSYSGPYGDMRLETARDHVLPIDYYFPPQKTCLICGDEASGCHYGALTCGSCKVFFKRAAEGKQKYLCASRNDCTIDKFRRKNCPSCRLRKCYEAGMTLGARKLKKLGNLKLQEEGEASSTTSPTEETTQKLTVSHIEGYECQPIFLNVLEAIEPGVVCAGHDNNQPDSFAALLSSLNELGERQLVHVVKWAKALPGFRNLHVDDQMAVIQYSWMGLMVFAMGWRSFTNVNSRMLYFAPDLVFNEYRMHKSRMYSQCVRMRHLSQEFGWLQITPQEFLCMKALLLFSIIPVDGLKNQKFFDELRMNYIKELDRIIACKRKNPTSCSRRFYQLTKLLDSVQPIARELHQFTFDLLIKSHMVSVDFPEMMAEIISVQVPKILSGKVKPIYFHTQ
Assay: Binding affinity to androgen receptor
Settings: not given

| Ki | SMILES |
| --- | --- |
| 1.1 µM | CCC(CC)(c1ccc(OCC(=O)C(C)(C)C)c(C)c1)c1ccc(OC[C@H](O)CO)c(C)c1 |
| 1 µM | CCC(CC)(c1ccc(OC[C@H](O)CO)c(C)c1)c1ccc(OC[C@H](O)C(C)(C)C)c(C)c1 |
| 1.8 µM | CCC(CC)(c1ccc(OCC(=O)C(C)(C)C)c(C)c1)c1ccc(OC[C@@H](O)CO)c(C)c1 |
| 1.1 µM | CCC(CC)(c1ccc(OC[C@H](O)CO)c(C)c1)c1ccc(OC[C@@H](O)C(C)(C)C)c(C)c1 |
| 1 µM | CCC(CC)(c1ccc(OC[C@@H](O)CO)c(C)c1)c1ccc(OC[C@H](O)C(C)(C)C)c(C)c1 |
| 1.1 µM | CCC(CC)(c1ccc(OC[C@@H](O)CO)c(C)c1)c1ccc(OC[C@@H](O)C(C)(C)C)c(C)c1 |

Tested on: HL-60
Assay: Selectivity index, ratio of EC50 for Vitamin-D activity at VDR receptor in human HL60 cells to EC50 for antiandrogen activity against androgen receptor in androgen-dependent mouse SC3 cells
Format: cell-based
Settings: not given

| SMILES | Ratio EC50 |
| --- | --- |
| CCC(CC)(c1ccc(OCC(=O)C(C)(C)CCCc2ccccc2)c(C)c1)c1ccc(OC[C@@H](O)CO)c(C)c1 | > 3.1 |
| CCC(CC)(c1ccc(OCC(O)C(C)(C)CCCc2ccccc2)c(C)c1)c1ccc(OC[C@@H](O)CO)c(C)c1 (stereo partly drawn) | 28 |
| CCC(CC)(c1ccc(OCC(=O)C(C)(C)Cc2ccccc2)c(C)c1)c1ccc(OC[C@@H](O)CO)c(C)c1 | < 2.1 |
| CCC(CC)(c1ccc(OCC(O)C23CC4CC(CC(C4)C2)C3)c(C)c1)c1ccc(OC[C@@H](O)CO)c(C)c1 (stereo partly drawn) | < 2.2 |
| CCC(CC)(c1ccc(OCC(O)C(C)(C)Cc2ccccc2)c(C)c1)c1ccc(OC[C@@H](O)CO)c(C)c1 (stereo partly drawn) | 6.5 |
| CCC(CC)(c1ccc(OCC(O)C(C)(C)CCc2ccccc2)c(C)c1)c1ccc(OC[C@@H](O)CO)c(C)c1 (stereo partly drawn) | 8.1 |
| CCC(CC)(c1ccc(OCC(=O)C(C)(C)CCc2ccccc2)c(C)c1)c1ccc(OC[C@@H](O)CO)c(C)c1 | 21 |
